In patent US20150094321A1, “COMBINATION” (GlaxoSmithKline LLC, priority 2009, published 2015):

Experiments:
Test in all cases: Cell line proliferation study
Type in all cases: cell-based, human
Colo205 = conditions: Colo205, colon; for IC50: Homo sapiens, COLO 205, 72 hours, read-out: gIC50
Description: (§1) In a separate study, combination drug tests with Compounds A and B were conducted using a panel of cell lines from human colon cancers (n=26), lung cancers (n=15) and pancreatic cancers (n=6). Cell lines were obtained from commercial vendors (ATCC and DSMZ). Cell lines were grown in RPMI-1640 supplemented with 2 mM glutamine, 1 mM sodium pyruvate and 10% fetal bovine serum (except for Capan-1 and HuP-T4 which were grown with 20% fetal bovine serum) and maintained at 37° C. and 5% CO2 in a humid incubator. Assays were performed in 384 well microtiter plates with optimum seeding densities for each cell line.
(§2) The test compounds were prepared as 10 mM stocks in 100% DMSO. Further dilutions of the compounds were made in DMSO. Compound A was diluted horizontally in a separate 96 well microtiter plate in rows D-G using a 3-fold dilution series for 10 dilution points. Compound B was similarly diluted horizontally in a 96 well microtiter plate in rows B-E using a 3-fold dilution series for 10 dilution points.
(§3) The two compounds were combined using equal volumes from each drug plate into cell culture media. […] Both Compound A and Compound B were individually titrated in rows B and C (for Compound B) and rows F and G (for Compound A) of the merged drug plate.
(§4) A 1:10 dilution of the drugs was performed in cell culture media prior to addition to the cells.
(§5) The final concentration range for the test compounds was 250 to 0.013 nM for Compound A and 1000 to […] for Compound B. The positive control consisted of culture media with DMSO at 0.1% and cells. The negative control consisted of culture media with DMSO at 0.1%. The cell lines were incubated at 37° C., 5% CO2 in humid air for 72 hours. Cell proliferation was measured using the CellTiter Glo (Promega) reagent according to the manufacturer's protocol. The plates are treated with CellTiter Glo solution and are analyzed for RLU (relative light units) using a Molecular Devices SpectraMax M5 plate reader.
(§6) The percent intensity values were used in model 205 of XLfit (IDBS, Inc.) in Microsoft Excel to calculate gIC50 values using a 4 parameter logistical fit. The midpoint of the growth window (the gIC50) falls half way between the number of cells at the time of compound addition (T=0) and the growth of control cells treated with DMSO at 72 hrs. The number of cells at time zero (T0) is divided from the intensity value at the bottom of the response curve (Ymin) to generate a measure for cell death (Ymin/T0). A value below 1 for Ymin/T0 indicates stronger potency to induce cell death with the treatment when compared to higher values. […]

BxPC3 = conditions: BxPC3, pancreas; for IC50: Homo sapiens, BXPC-3, 72 hours, read-out: gIC50
Description: as §1, §2, §3, §4, §5, §6

RKO = conditions: colon; for IC50: Homo sapiens, 72 hours, read-out: gIC50
Description: as §1, §2, §3, §4, §5, §6

ASPC1 = conditions: ASPC1, pancreas; for IC50: Homo sapiens, 72 hours, read-out: gIC50
Description: as §1, §2, §3, §4, §5, §6

Calu6 = conditions: Calu6, lung; for IC50: Homo sapiens, Calu-6, 72 hours, read-out: gIC50
Description: as §1, §2, §3, §4, §5, §6

SW1116 = conditions: SW1116, colon; for IC50: Homo sapiens, SW 1116, 72 hours, read-out: gIC50
Description: as §1, §2, §3, §4, §5, §6

NCIH2122 = conditions: NCIH2122, lung; for IC50: Homo sapiens, NCI-H2122, 72 hours, read-out: gIC50
Description: as §1, §2, §3, §4, §5
(§7) The percent intensity values were used in model 205 of XLfit (IDBS, Inc.) in Microsoft Excel to calculate gIC50 values using a 4 parameter logistical fit. The midpoint of the growth window (the gIC50) falls half way between the number of cells at the time of compound addition (T=0) and the growth of control cells treated with DMSO at 72 hrs. The number of cells at time zero (T0) is divided from the intensity value at the bottom of the response curve (Ymin) to generate a measure for cell death (Ymin/T0). A value below 1 for Ymin/T0 indicates stronger potency to induce cell death with the treatment when compared to higher values.
(§8) 1. Excess over Highest Single Agent (EOHSA)—This was calculated as described above (Borisy et al, 2003; FDA 21 CFR 300.50) 2. Bliss synergy—A second criterion often used to determine combination synergy is evaluating the excess inhibition over Bliss independence or “additivity” (Bliss and Mexico, 1939). The model assumes a combined response of the two compounds independently using the following:
(§9) Where Ea is the effect (or percent inhibition) of Compound A and Eb is the effect of Compound B. The resulting effect of the combination of the two compounds is compared to their predicted additivity by Bliss and a synergy score is generated for each dose along the response curve. 3. Combination Index (CI)—A third criterion traditionally used for the evaluation of synergy is Combination Index (CI) derived from the Chou and Talalay (1984). The following equation is a model used for compounds that behave with different mechanisms of action (mutually non-exclusive formula). This was calculated as described above.
(§10) For EOHSA and Bliss Synergy measures, a score is generated for each dose along the response curve. These scores reflect the percentage over the highest agent (EOHSA) or percentage greater than Bliss additivity, depending on which metric is being interpreted. […]

HPAFII = conditions: pancreas; for IC50: Homo sapiens, HPAF-II, 72 hours, read-out: gIC50
Description: as §1, §2, §3, §4, §5, §7, §8, §9, §10

NCIH1299 = conditions: NCIH1299, lung; for IC50: Homo sapiens, NCI-H1299, 72 hours, read-out: gIC50
Description: as §1, §2, §3, §4, §5, §7, §8, §9, §10

LS1034 = conditions: LS1034, colon; for IC50: Homo sapiens, LS-1034, 72 hours, read-out: gIC50
Description: as §1, §2, §3, §4, §5, §7, §8, §9, §10

NCIH1792 = conditions: NCIH1792, lung; for IC50: Homo sapiens, NCI-H1792, 72 hours, read-out: gIC50
Description: as §1, §2, §3, §4, §5, §7, §8, §9, §10

SW480 = conditions: SW480, colon; for IC50: Homo sapiens, 72 hours, read-out: gIC50
Description: as §1, §2, §3, §4, §5, §7, §8, §9, §10

SW48 = conditions: SW48, colon; for IC50: Homo sapiens, 72 hours, read-out: gIC50
Description: as §1, §2, §3, §4, §5, §7, §8, §9, §10

Row | Compound | Ymin/T0 (Colo205) | IC50 (Colo205) [nM] | Ymin/T0 (BxPC3) | IC50 (BxPC3) [nM] | IC50 (RKO) [nM] | Ymin/T0 (RKO) | Ymin/T0 (ASPC1) | IC50 (ASPC1) [nM] | Ymin/T0 (Calu6) | IC50 (Calu6) [nM] | IC50 (SW1116) [nM] | Ymin/T0 (SW1116) | IC50 (NCIH2122) [nM] | Ymin/T0 (NCIH2122) | IC50 (HPAFII) [nM] | Ymin/T0 (HPAFII) | IC50 (NCIH1299) [nM] | Ymin/T0 (NCIH1299) | IC50 (LS1034) [nM] | Ymin/T0 (LS1034) | further results
1 | CC(=O)Nc1cccc(-n2c(=O)n(C3CC3)c(=O)c3c(Nc4ccc(I)cc4F)n(C)c(=O)c(C)c32)c1 [Compound A, N-{3-[3-cyclopropyl-5-(2-fluoro-4-iodo-phenylamino)-6,8-dimethyl-2,4,7-trioxo-3,4,6,7-tetrahydro-2H-pyrido[4,3-d]pyrimidin-1-yl]phenyl}acetamide] | −1.30 | 0.77 | 20.86 | > 250 | 77.8 | 24.44 | 13.6 | 19.7 | 15.0 | 53.1 | 14.6 | 2.28 | 30 | −11.8 | 15.9 | −0.8 | 24 | 45.9 | 37 | 2.87 | IC50 (NCIH1792): 42 nM; Ymin/T0 (NCIH1792): 2.8; IC50 (SW480): 326 nM; Ymin/T0 (SW480): 29.37; IC50 (SW48): 8.16 nM; Ymin/T0 (SW48): 13.02
2 | Cn1ncc(Cl)c1-c1cc(C(=O)N[C@H](CN)Cc2ccc(F)c(F)c2)oc1Cl [Compound B, N-{(1S)-2-amino-1-[(3,4-difluorophenyl)methyl]ethyl}-5-chloro-4-(4-chloro-1-methyl-1H-pyrazol-5-yl)-2-furancarboxamide] | 14.87 | > 1000 | 71.87 | > 1000 | > 1000 | 17.13 | 42.9 | > 1000 | 56.3 | > 1000 | > 1000 | 37.32 | > 1000 | 11.4 | > 1000 | 31.2 | > 1000 | 58.1 | > 1000 | −0.67 | IC50 (NCIH1792): > 1000 nM; Ymin/T0 (NCIH1792): 26.0; IC50 (SW480): > 1000 nM; Ymin/T0 (SW480): 11.87; IC50 (SW48): 428 nM; Ymin/T0 (SW48): 11.68
